{
  "source": "patent US20090142347A1",
  "about": "“Tissue-Nonspecific Alkaline Phosphatase (TNAP): a Therapeutic Target for Arterial Calcification” (THE BURNHAM INSTITUTE FOR MEDICAL RESEARCH, priority 2004, published 2009)",
  "key": {"[1]": {"tested_on": "bovine VSMC calcification", "details": "Shioi et al., 1995; cited from earlier work"}, "chTNALP": {"biological_target": "T1, chTNALP (Gallus gallus, UniProt Q92058)", "T1 sequence (Q92058 17-498)": "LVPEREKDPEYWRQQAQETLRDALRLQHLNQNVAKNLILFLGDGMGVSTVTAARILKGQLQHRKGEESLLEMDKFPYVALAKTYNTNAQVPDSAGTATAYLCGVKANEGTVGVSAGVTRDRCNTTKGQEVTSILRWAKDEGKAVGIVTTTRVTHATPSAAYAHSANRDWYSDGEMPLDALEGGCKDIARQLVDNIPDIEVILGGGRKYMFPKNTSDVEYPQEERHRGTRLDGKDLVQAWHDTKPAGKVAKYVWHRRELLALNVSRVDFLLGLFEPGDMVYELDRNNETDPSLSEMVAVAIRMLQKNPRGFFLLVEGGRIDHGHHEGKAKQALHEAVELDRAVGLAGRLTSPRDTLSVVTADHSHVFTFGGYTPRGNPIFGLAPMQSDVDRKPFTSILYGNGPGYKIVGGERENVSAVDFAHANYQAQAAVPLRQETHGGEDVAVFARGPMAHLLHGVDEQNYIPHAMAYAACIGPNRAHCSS", "test": "Ki of uncompetitive inhibitors (pNPP substrate)", "assay_type": "biochemical, chicken", "source_text": "(See Kozlenkov A, et al., 2002). […] TNAP and PLAP structures were superimposed and the amino acid differences within a 12 Å radius around the catalytic Zn1 ion were pinpointed. The difference between human TNAP and chicken TNAP were also mapped because it is reported that chicken TNAP is much less susceptible to levamisol than is human TNAP. In total, six positions with amino acid differences were found, which could be clustered into two groups. […] In addition, […] and […] were also investigated."}, "[2]": {"biological_target": "Recombinant human FLAG-TNAP (Homo sapiens, UniProt P05186)", "sequence (P05186 18-501 limits assumed)": "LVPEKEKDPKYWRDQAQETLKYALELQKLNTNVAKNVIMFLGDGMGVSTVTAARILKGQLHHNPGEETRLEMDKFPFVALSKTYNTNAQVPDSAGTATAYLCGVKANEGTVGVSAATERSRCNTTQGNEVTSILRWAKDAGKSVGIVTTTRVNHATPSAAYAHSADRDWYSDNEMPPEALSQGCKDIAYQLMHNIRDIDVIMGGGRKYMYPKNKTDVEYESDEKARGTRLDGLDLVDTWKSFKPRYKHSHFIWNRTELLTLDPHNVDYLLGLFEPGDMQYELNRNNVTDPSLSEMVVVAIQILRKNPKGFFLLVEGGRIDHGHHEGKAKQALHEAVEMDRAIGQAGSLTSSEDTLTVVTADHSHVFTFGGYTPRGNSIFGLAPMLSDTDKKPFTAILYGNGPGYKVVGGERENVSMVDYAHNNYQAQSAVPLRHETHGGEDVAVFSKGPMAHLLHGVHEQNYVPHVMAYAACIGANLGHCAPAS", "test": "Chemical library screening, TNAP pNPP microtiter plate assay", "details": "for inhibition response: positive controls, 0.5 mM pNPP, pH 9.8, concentration not given"}, "hPLALP H429": {"biological_target": "T2, hPLALP H429 (Homo sapiens, UniProt P05187, E451H)", "T2 construct": "made in house; host or cells: COS-7 (given only for the TNAP-Flag constructs)", "T2 sequence (P05187 23-506 E451H limits assumed)": "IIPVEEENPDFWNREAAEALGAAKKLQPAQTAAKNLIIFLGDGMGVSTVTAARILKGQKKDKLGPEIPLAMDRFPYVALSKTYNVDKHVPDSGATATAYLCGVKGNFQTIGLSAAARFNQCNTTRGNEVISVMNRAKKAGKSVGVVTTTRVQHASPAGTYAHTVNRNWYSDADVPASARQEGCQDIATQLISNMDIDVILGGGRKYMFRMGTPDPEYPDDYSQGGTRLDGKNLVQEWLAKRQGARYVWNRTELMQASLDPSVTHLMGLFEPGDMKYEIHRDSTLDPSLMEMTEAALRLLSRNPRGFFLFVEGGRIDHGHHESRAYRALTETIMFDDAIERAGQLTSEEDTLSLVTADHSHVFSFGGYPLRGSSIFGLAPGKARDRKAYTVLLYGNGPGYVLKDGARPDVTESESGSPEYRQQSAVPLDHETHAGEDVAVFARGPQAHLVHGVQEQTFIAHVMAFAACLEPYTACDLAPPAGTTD", "test": "Ki of uncompetitive inhibitors (pNPP substrate)", "assay_type": "biochemical", "details": "hPLALP mutant H429; read-out: Ki for various inhibitors", "experimental": "(§1) In brief, samples of the enzymes were added to microtiter plates coated with M2 anti-FLAG antibody, and saturating activities with the substrate pNPP were measured in 1 M DEA/HCl buffer, pH 9.8, containing 1 mM MgCl2 and 20 .micro.M ZnCl2."}, "hPLALP G108": {"biological_target": "T3, hPLALP G108 (Homo sapiens, UniProt P05187, Q130G)", "T3 construct": "made in house; host or cells: COS-7 (given only for the TNAP-Flag constructs)", "T3 sequence (P05187 23-506 Q130G limits assumed)": "as the sequence (P05187 23-506 E451H limits assumed) above, with Q108G, H429E counted along it", "test": "Ki of uncompetitive inhibitors (pNPP substrate)", "assay_type": "biochemical", "details": "hPLALP mutant G108; read-out: Ki for various inhibitors", "experimental": "as §1"}, "hPLALP (E107, G429)": {"biological_target": "T4, hPLALP (E107, G429) (Homo sapiens, UniProt P05187, E451G/F129E)", "T4 construct": "made in house; host or cells: COS-7 (given only for the TNAP-Flag constructs)", "T4 sequence (P05187 23-506 F129E/E451G limits assumed)": "as the sequence (P05187 23-506 E451H limits assumed) above, with F107E, H429G counted along it", "test": "Ki of uncompetitive inhibitors (pNPP substrate)", "assay_type": "biochemical", "details": "hPLALP mutant (E107, G429); read-out: Ki for various inhibitors", "experimental": "as §1"}, "hPLALP": {"biological_target": "T5, hPLALP (Homo sapiens, UniProt P05187)", "T5 construct": "made in house", "T5 sequence (P05187 23-506 limits assumed)": "as the sequence (P05187 23-506 E451H limits assumed) above, with H429E counted along it", "test": "Ki of uncompetitive inhibitors (pNPP substrate)", "assay_type": "biochemical", "details": "read-out: Ki for various inhibitors", "experimental": "as §1"}, "hPLALP (G108, G429)": {"biological_target": "T6, hPLALP (G108, G429) (Homo sapiens, UniProt P05187, E451G/Q130G)", "T6 construct": "made in house; host or cells: COS-7 (given only for the TNAP-Flag constructs)", "T6 sequence (P05187 23-506 Q130G/E451G limits assumed)": "as the sequence (P05187 23-506 E451H limits assumed) above, with Q108G, H429G counted along it", "test": "Ki of uncompetitive inhibitors (pNPP substrate)", "assay_type": "biochemical", "details": "hPLALP mutant (G108, G429); read-out: Ki for various inhibitors", "experimental": "as §1"}, "hPLALP (E107, G108)": {"biological_target": "T7, hPLALP (E107, G108) (Homo sapiens, UniProt P05187, F129E/Q130G)", "T7 construct": "made in house; host or cells: COS-7 (given only for the TNAP-Flag constructs)", "T7 sequence (P05187 23-506 F129E/Q130G limits assumed)": "as the sequence (P05187 23-506 E451H limits assumed) above, with F107E, Q108G, H429E counted along it", "test": "Ki of uncompetitive inhibitors (pNPP substrate)", "assay_type": "biochemical", "details": "hPLALP mutant (E107, G108); read-out: Ki for various inhibitors", "experimental": "as §1"}, "hPLALP E107": {"biological_target": "T8, hPLALP E107 (Homo sapiens, UniProt P05187, F129E)", "T8 construct": "made in house", "T8 sequence (P05187 23-506 F129E limits assumed)": "as the sequence (P05187 23-506 E451H limits assumed) above, with F107E, H429E counted along it", "test": "Ki of uncompetitive inhibitors (pNPP substrate)", "assay_type": "biochemical", "details": "hPLALP mutant E107; read-out: Ki for various inhibitors", "experimental": "as §1"}, "hPLALP D165": {"biological_target": "T9, hPLALP D165 (Homo sapiens, UniProt P05187, N187D)", "T9 construct": "made in house; host or cells: COS-7 (given only for the TNAP-Flag constructs)", "T9 sequence (P05187 23-506 N187D limits assumed)": "as the sequence (P05187 23-506 E451H limits assumed) above, with N165D, H429E counted along it", "test": "Ki of uncompetitive inhibitors (pNPP substrate)", "assay_type": "biochemical", "details": "hPLALP mutant D165; read-out: Ki for various inhibitors", "experimental": "as §1"}, "hPLALP S119": {"biological_target": "T10, hPLALP S119 (Homo sapiens, UniProt P05187, N141S)", "T10 construct": "made in house; host or cells: COS-7 (given only for the TNAP-Flag constructs)", "T10 sequence (P05187 23-506 N141S limits assumed)": "as the sequence (P05187 23-506 E451H limits assumed) above, with N119S, H429E counted along it", "test": "Ki of uncompetitive inhibitors (pNPP substrate)", "assay_type": "biochemical", "details": "hPLALP mutant S119; read-out: Ki for various inhibitors", "experimental": "as §1"}, "hPLALP (R428, H429)": {"biological_target": "T11, hPLALP (R428, H429) (Homo sapiens, UniProt P05187, D450R/E451H)", "T11 construct": "made in house; host or cells: COS-7 (given only for the TNAP-Flag constructs)", "T11 sequence (P05187 23-506 D450R/E451H limits assumed)": "as the sequence (P05187 23-506 E451H limits assumed) above, with D428R counted along it", "test": "Ki of uncompetitive inhibitors (pNPP substrate)", "assay_type": "biochemical", "details": "hPLALP mutant (R428, H429); read-out: Ki for various inhibitors", "experimental": "as §1"}, "hPLALP R428": {"biological_target": "T12, hPLALP R428 (Homo sapiens, UniProt P05187, D450R)", "T12 construct": "made in house; host or cells: COS-7 (given only for the TNAP-Flag constructs)", "T12 sequence (P05187 23-506 D450R limits assumed)": "as the sequence (P05187 23-506 E451H limits assumed) above, with D428R, H429E counted along it", "test": "Ki of uncompetitive inhibitors (pNPP substrate)", "assay_type": "biochemical", "details": "hPLALP mutant R428; read-out: Ki for various inhibitors", "experimental": "as §1"}, "wild-type osteoblasts": {"tested_on": "wild-type osteoblasts", "details": "wild-type osteoblasts treated with exogenous PPi; RT-PCR", "source_text": "To determine whether affecting the function of either NPP1 or ANK would have beneficial consequences on hypophosphatasia by reducing the amounts of extracellular PPi in the Akp2−/− mice, we bred either Enpp1−/− or ank/ank mice to the Akp2−/− mice. […] Hypophosphatasia arises from deficits in TNAP activity, resulting in an increase in PPi levels and concomitant increase in OPN levels."}, "Akp2−/− mice": {"tested_on": "Akp2−/− mice", "details": "Narisawa et al., 2001; cited from earlier work"}, "MC3T3-E1 cells": {"tested_on": "MC3T3-E1 cells", "source_text": "(§2) In one example of this pharmacological study tetramisole will be used. […] For ApoE−/− mice arterial calcification is established by 3-months of age. Thus, the pump can feasibly be planted as early as 1-month of age, allowing treatment to begin at least as early."}, "[3]": {"details": "dose of 30 micrograms/g BW; results not shown", "source_text": "as §2"}, "[4]": {"tested_on": "TNAP activity in Enpp1−/− and ank/ank derived VSMC", "details": "Enpp1−/− and ank/ank derived VSMC in vitro, tetramisole 0.125 mM, 3 weeks (FIG. 5)", "source_text": "Left panel: A) immunofluorscent detection of smooth muscle alpha-actin. VSMCs were isolated from WT aorta by collagenase digestion, all cells were stained for actin filaments (F-actin) by rhodamine phalloidin (red), and VSMCs were stained using a specific FITC-conjugated monoclonal anti-SM-alpha-actin (green). B) Proportion of cells staining positive for SM-alpha-actin. C) Total RNA was isolated and SM alpha-actin was detected by RT-PCR analysis. Middle panel: VSMCs isolated from WT, Enpp1−/− and ank/ank mice were cultured in the presence of beta-glycerophosphate for 4 weeks. Cells were then stained for TNAP activity (pink) and using von Kossa staining, mineral was detected (black/brown). The area of the culture well in which mineralization was present was quantified by using a point-counting method in which the plate was placed on a grid (divided into 10 mm×10 mm squares) and visualized using a dissecting microscope, the percent area occupied by mineral was assessed by counting the occurrences where the presence of mineral coincided with intercepts on the grid."}, "[5]": {"tested_on": "Enpp1−/− and ank/ank mice", "details": "subcutaneous, ALZET osmotic pumps, 10 μg/g/day, compared to control mice", "experimental": "Flexibility was measured after euthanasia by determining the degree to which the root of the tail could be pulled back towards the neck, shoulders or lumbar spine until resistance prevented further flexing.\nTetramisole was delivered via ALZET osmotic pumps (Durect Corporation, Cupertino, Calif.) at a dose of 10 μg/g/day."}},
  "note": "Read-outs that look alike come from different tables or passages of the source.",
  "data": [
    {"molecule": "c1ccc([C@H]2CN3CCSC3=N2)cc1", "note": "[Levamisole]", "values": [
      {"measurement": "bovine VSMC calcification", "setting": "[1]", "value": "blocks bovine VSMC calcification in a dose-dependent manner"},
      {"measurement": "Ki", "setting": "chTNALP; read-out: Ki for various inhibitors", "value": "136 ± 20", "unit": "µM"},
      {"measurement": "inhibition response", "setting": "[2]", "value": "around 50%"},
      {"measurement": "inhibition of the enzymatic activity of TNAP (confirmed screening hits)", "setting": "[2]; screen of 53,080 compounds", "value": "inhibit the enzymatic activity of TNAP"},
      {"measurement": "Ki", "setting": "hPLALP H429", "value": "50 ± 3", "unit": "µM"},
      {"measurement": "Ki", "setting": "hPLALP G108", "value": "458 ± 30", "unit": "µM"},
      {"measurement": "Ki", "setting": "hPLALP (E107, G429)", "value": "535 ± 80", "unit": "µM"},
      {"measurement": "Ki", "setting": "hPLALP", "value": "563 ± 56", "unit": "µM"},
      {"measurement": "Ki", "setting": "hPLALP (G108, G429)", "value": "480 ± 60", "unit": "µM"},
      {"measurement": "Ki", "setting": "hPLALP (E107, G108)", "value": "1150 ± 60", "unit": "µM"},
      {"measurement": "Ki", "setting": "hPLALP E107", "value": "1050 ± 40", "unit": "µM"},
      {"measurement": "Ki", "setting": "hPLALP D165", "value": "680 ± 140", "unit": "µM"},
      {"measurement": "Ki", "setting": "hPLALP S119", "value": "630 ± 90", "unit": "µM"},
      {"measurement": "Ki", "setting": "hPLALP (R428, H429)", "value": "34 ± 1", "unit": "µM"},
      {"measurement": "Ki", "setting": "hPLALP R428", "value": "460 ± 40", "unit": "µM"}
    ]},
    {"molecule": "O=P(O)(O)OP(=O)(O)O", "note": "[PPi, Inorganic pyrophosphate]", "values": [
      {"measurement": "NPP1 and ANK expression", "setting": "wild-type osteoblasts", "value": "decreased NPP1 and ANK expression"},
      {"measurement": "OPN expression", "setting": "wild-type osteoblasts", "value": "increase in OPN expression"}
    ]},
    {"molecule": "Cn1c(=O)c2[nH]cnc2n(C)c1=O", "note": "[Theophylline, theophylline]", "values": [
      {"measurement": "Ki", "setting": "chTNALP; Ki for various inhibitors, (1)*, (1)*: 1 mM pNPP", "value": "393 ± 150", "unit": "µM"},
      {"measurement": "Ki", "setting": "chTNALP; Ki for various inhibitors, (20)*, (20)*: 20 mM pNPP", "value": "111 ± 8", "unit": "µM"}
    ]},
    {"molecule": "Cc1ncc(CO)c(C=O)c1O", "note": "[pyridoxal]", "values": [
      {"measurement": "apoptosis in the thymus and the lumbar nerve roots", "setting": "Akp2−/− mice", "value": "reverses apoptosis"},
      {"measurement": "epileptic seizures", "setting": "Akp2−/− mice", "value": "suppresses the epileptic seizures"}
    ]},
    {"molecule": "c1ccc(C2CN3CCSC3=N2)cc1", "note": "(stereo not drawn) [tetramisole]", "values": [
      {"measurement": "PPi levels", "setting": "MC3T3-E1 cells", "value": "raise PPi levels"},
      {"measurement": "tolerability", "setting": "[3]", "value": "well tolerated"},
      {"measurement": "TNAP activity in VSMC", "setting": "[4]", "value": "inhibits TNAP activity"},
      {"measurement": "TNAP activity in VSMC", "setting": "[4]; listed as Tetramisole", "value": "normalize TNAP activity"},
      {"measurement": "flexibility of the spine", "setting": "[5]", "value": "enhanced flexibility of the spine"}
    ]},
    {"molecule": "phosphate", "values": [
      {"measurement": "inhibition response", "setting": "[2]", "value": "around 50%"}
    ]}
  ]
}
